Assay results: article PMC6161179, “Looking for Novel Capsid Protein Multimerization Inhibitors of Feline Immunodeficiency Virus” (Pharmaceuticals, 2018)
pEC50, pIC50: −log10 of the molar value. Where two headings read alike, the source gives them in different places.

Experiments:
[1] = tested on: HIV-1 capsid protein; set-up: method as in PMID 12662926; details: read-out: EC50 (affinity); cited from earlier work
[2] = tested on: HIV-1; set-up: method as in PMID 12662926; details: at 100 µM; cited from earlier work
[3] = biological target: T1, FIV CA (p24) (Feline immunodeficiency virus, UniProt P16087); assay: Microscale thermophoresis (MST) binding to CA
T1 construct: The FIV CA protein was expressed and purified mostly as described; made in house; host or cells: Escherichia coli BL21(DE3) pLysS
T1 sequence (P16087 136-357): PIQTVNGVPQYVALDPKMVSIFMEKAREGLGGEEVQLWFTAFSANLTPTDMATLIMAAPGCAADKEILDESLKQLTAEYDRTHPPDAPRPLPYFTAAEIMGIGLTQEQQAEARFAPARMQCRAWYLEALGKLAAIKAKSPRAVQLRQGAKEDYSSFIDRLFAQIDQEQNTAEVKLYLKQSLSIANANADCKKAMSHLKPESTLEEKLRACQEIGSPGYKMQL
Method: The major disadvantage of this method is the interference of the compound with the measurement, either by autofluorescence or quenching.
We explored the binding affinity at two different times (10 and 60 min) to enhance the poetical interactions.
MTS experiments were performed according to the NanoTemper technologies protocol in a Monolith NT.115 (green/blue) instrument (NanoTemper Technologies, München, Germany). With this technique, the diffusion behavior of a labeled protein is measured when an infrared light excites the movement of the protein in capillaries. This behavior is the combination of two effects: the fast, local environment dependent responses of the fluorophore to the temperature jump and the slower diffusive thermophoresis fluorescence changes. It will be modified when the protein is complexed with increasing amounts of unlabeled partners, leading to titration curves that can be fit for Kd estimation. In practice, CA was labeled with the Monolith His-Tag Labeling Kit RED-tris-NTA (NanoTemper Technologies, München, Germany), as described by the manufacturer. The experiments were performed using 20% and 40% MST power and between 20–80% LED power at 24 °C. The MST traces were recorded using the standard parameters: 5 s MST power off, 30 s MST power on, and 5 s MST power off. The compounds were used at high concentrations (around 5 mM) in the bindings check assay with DMSO at 5% v/v. If the binding check was positive, then the affinity determination was performed with the same experimental settings, with serial 2× dilutions of the compound of interest.

[4] = tested on: J774.1 murine macrophage cells; assay: MTT cytotoxicity assay in J774.1 murine macrophages; format: cell-based; details: compound at 100µM, 48 h
Method: (§1) Vero cell lines (ATCC, Rockville, MD, USA) were cultivated in Dulbecco’s modified Eagles medium (DMEM) with 10% FCS in a humid atmosphere of 5% CO2 at 37 °C. Vero cells were seeded in 96-well plates at an initial density of 5 × 10^3 cells per well. J774.1 murine macrophage cells (ATCC, Manassas, VA, USA) were grown in DMEM culture milieu containing 4 mM L-glutamine and supplemented with 10% FCS. The cells were seeded in a 96-well plate (5 × 10^4 cells in 200 µL culture medium) and incubated at 37 °C in a 5% CO2 atmosphere for 48 h, to allow cell adhesion prior to drug testing. Both cell lines were exposed for 48 h (at 37 °C and 5% CO2) to the compounds (100 µM) or the solvent (0.4% DMSO) for the control, and additional controls (cells in medium) were used in each test. The cytotoxicity of the compounds was evaluated by MTT reduction assays. To proceed with the MTT assay, 20 μL of 3-(4,5-dimethylthiazol-2-yl)-2,5-diphenyl-2H-tetrazolium bromide (MTT) 5 mg/mL solution dissolved in 1× PBS was added to the wells and incubated for 4 h at 37 °C in a 5% CO2 controlled atmosphere. Next, the medium was aspirated and 100 μL of DMSO was added to each well and incubated at room temperature in the dark for 15 min with moderate orbital shaking. Optical density (OD) was read in a plate spectrophotometer (Thermo Scientific Varioskan® Flash Multimode, Waltham, MA, USA) at 570 and 690 nm wavelengths. Each experiment was performed in triplicate. For the statistical analyses, the GraphPad Prism 6 was used. Dunnett’s multiple comparison tests and Student’s T-test were used when we compared the averages of each condition with the control.

[5] = tested on: Vero cell lines; assay: MTT cytotoxicity assay in Vero cells; format: cell-based; details: compound at 100µM, 48 h
Method: as §1

[6] = tested on: five different enzymes from pathogen parasites; set-up: method as in PMID 20889239, PMID 28481276; details: at 100 µM; cited from earlier work
[7] = biological target: T1, FIV CA (p24); assay: In vitro CA assembly assay (spectrophotometry / light scattering); format: biochemical; details: re-validated by light scattering and spectrophotometry; compounds at 25 or 50 µM
Method: Indeed, our initial assay used light scattering and could only monitor the assembly of one sample per experiment on 40 min kinetics. […] The use of the spectrometric technique to follow capsid assembly has been described for HIV [24] and is based on the detection of capsid assembly via the measurement of the increase of medium turbidity. The use of this technique to monitor FIV p24 assembly allowed us to use 384-well plates, reducing the volume of protein to 15 µL per sample and allowing a testing of 10 compounds, in duplicate, in 40 min. Moreover, in this format, the protein concentration (5 mg/mL) was enough to start the assembly without needing the high concentration of salt used in the HIV in vitro assembly assay. High salt concentration could cause a problem by interfering with the solvation and solubility of some molecules and the loss of their interaction with the target. The only limitation of this method using low volumes was the risk of introducing air bubbles in the reaction, which interfere negatively in the absorbance measurement. However, this issue was solved by a careful manipulation in the filling process of the plates.
With this spectrometric assembly assay, we were able to discriminate two different behaviors for compounds interfering with the assembly of FIV CA: the enhancement of the assembly or its inhibition. The enhancement of assembly is associated with an increase of the diameter of the assembled objects and could result in a disordered or altered capsid with a loss of function. Inhibition is the classical effect which would impair the formation of the capsid (Figure 3).
High nitrogen content heretocycles were not a good source of bioactive molecules. Some compounds with structural similarities with Bevirimat were also active, like some steroid compounds clustered in diverse families. […] We could not find active molecules in four families (i.e., selenium containing compounds, flavones, triazines, and indazoles).
The CA assembly assay was performed in a final volume of 50 μL in 384-well plates, with a final concentration of 5 mg/mL of purified recombinant FIV […] in 50 mM NaH2PO4 and 1 M NaCl, pH 7.4. Absorbance is measured at 340 nm every 30 s in a multiplate reader Varioskan^TM Flash Multimode Reader (Thermo Scientific^TM, Waltham, MA, USA) at 38 °C for 30 min. The compounds were tested at a fixed initial dose of 25 or 50 μM (at 0.5% DMSO v/v) by adding 1 µL of the concentrated ligand were added to the well before starting the measurement. The controls were CA at 5 mg/mL in only 0.5% DMSO v/v and CA without DMSO. The criteria to select active compounds were the observation of at least 50% of assembly inhibition at these doses, based on the reduction of the OD value at 340 nm at the plateau value compared to the controls.

[8] = tested on: murine macrophages; set-up: method as in PMID 28481276; details: read-out: cytotoxicity IC50; cited from earlier work
[9] = tested on: murine acute infection model of the Chagas disease; set-up: method as in PMID 26492824; details: 100 mg/kg body for 15 days; cited from earlier work
[10] = 1 h (60 min), read-out: 1h EC50

SMILES	pEC50 ([3]; 10 min, read-out: 10 min EC50)	pEC50 [3, 10]	Murine macrophages (grown %) [4] [%]	VERO (grown %) [5] [%]	inhibitory effects [6]	inhibition of the assembly [7]	further results
Cc1ccc(NC(=O)NCCSCc2ccc(CN(C)C)o2)cc1Cl [CAP-1]							pEC50 [1]: 4.22; activity in the in vitro infection assay [2]: active
O=C1C(=Cc2ccc([N+](=O)[O-])cc2)C(=O)N(CCc2ccccc2)S(=O)(=O)N1CCc1ccccc1 [compound 110]	2.96	3.10					
Nc1ccc(S(=O)(=O)c2ccc(Nc3c([N+](=O)[O-])c(Nc4ccc(S(=O)(=O)c5ccc(N)cc5)cc4)c4no[n+]([O-])c4c3[N+](=O)[O-])cc2)cc1 [compound 703]	3.49	3.14					
C=CCn1c(C(=O)O)cs\c1=N/N=C/C=C/c1ccc(C)o1 [compound 789]	3.19	3.18					
CC(/C=N/N1CCSCC1)=C\c1ccco1 [compound 878]	3.92	3.78	98±8	100±8	did not display inhibitory effects	inhibition of the assembly	pEC50 ([3]; 1 h (60 min), Figure 5 panel A, read-out: 1h EC50): 3.78; pIC50 [8]: < 4.00
C=CCn1c(C)cs\c1=N/N=C/C=C/c1cccs1 [compound 1128]	3.49	3.32					
O=C(O)c1cs/c(=N/N=C/C=C/C=C/c2cccs2)n1-c1ccccc1 [compound 1136]	3.67	4.08	95±7	100±9	did not display inhibitory effects	inhibition of the assembly	
C=CCN1C(=O)CS\C1=N/N=C/C=C/c1cccs1 [compound 1138]	3.62	3.74					
O=C1/C(=C/C=C/c2ccccc2)CC/C1=C\C=C\c1ccccc1 [compound 1246]	3.41	3.62	79±9	89±5	did not display inhibitory effects	inhibition of the assembly	toxic effect [9]: without toxic effect; pIC50 [8]: < 4.00
C=CCn1c(C(=O)O)cs/c1=N\N=C\c1ccc(/C=N/N=c2\scc(C(=O)O)n2CC=C)cc1 [compound 1310]	3.18	3.17	98±7	95±7	did not display inhibitory effects	inhibition of the assembly	
C=CCNC(=S)N/N=C/c1ccc2c(c1)c1cc(/C=N/NC(=S)NCC=C)ccc1n2CC(CC)CCCC (centres unmarked) [compound 1368]		4.46					
